In patent publication US20230142274A1 (SIMCERE PHARMACEUTICAL CO., LTD., priority 2020, published 2023):
pIC50: −log10 of the molar value. Read-outs that look alike come from different tables or passages of the source.

Tests used:
[1] = Metabolic stability in liver microsomes (CD-1 mouse); format: in vitro ADME; conditions: CD-1 mouse liver microsomes 0.5 mg/mL, compound 1 μM, NADPH 1 mM, 37° C.; for half-life at 1 μM: pH 7.4
Protocol: (§1) 1. Source of liver microsomes: human liver microsomes (Corning 452117), CD-1 mouse liver microsomes (XENOTECH M1000)
(§2) 1. Formulation of 100 mM phosphate buffer solution (PBS): 7.098 g of Na2HPO4 was weighed and ultrasonically dissolved in 500 mL of pure water to form Solution A. 3.400 g of KH2PO4 was weighed and ultrasonically dissolved in 250 mL of pure water to form Solution B. Solution A was placed in a stirrer and Solution B was slowly added until the pH value reached 7.4, thus formulating 100 mM PBS buffer solution.
(§3) The reaction system was formulated according to Table 3 below.
(§4) 3. The reaction system was placed in a water bath at 37° C. and pre-incubated for 10 minutes. 40 μL of 10 mM NADPH solution (NADPH was dissolved in 100 mM phosphate buffer solution) was added into the reaction system, and the final concentration of NADPH was 1 mM. 40 μL of Phosphate buffer solution was used instead of the NADPH solution as a negative control. The negative control was used to rule out the influence caused by the chemical stability of the compounds per se.
(§5) 4. The reaction system was added with 4 μL of 100 μM the compound of the present disclosure and Verapamil (the positive control compound) (DMSO as the vehicle), so that the reaction was initiated. The final concentration of the compound was 1 μM.
(§6) 5. At 0.5, 15, 30, 45 and 60 minutes, after being well mixed in a vortex oscillator, 50 μL of the incubated samples were taken out respectively, and the reaction was terminated with ice acetonitrile (4-fold) containing an internal standard. The samples were centrifuged at 3220 g for 45 minutes. After the centrifugation, 90 μL of the supernatants were transferred to a sample plate and mixed well with 90 μL of ultrapure water for LC-MS/MS analysis.
(§7) All data were calculated by Microsoft Excel software. Peak areas were determined from the extracted ion chromatograms. The in-vitro half-life (t1/2) of the parent drug was determined by the linear fitting of the natural logarithm of the elimination percentage of the parent drug versus time.
(§8) The in-vitro half-life (t1/2) was calculated from the slope: […]

[2] = system: Daudi cells; test: Inhibition of human Daudi lymphoma cell proliferation (Cell-Titer Glo); format: cell-based; conditions: 3 days incubation, read-out: Anti-Proliferative Activity Against Daudi cells IC50
In short: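 Daudi cells in RPMI 1640 with 10% FBS were seeded and grown 24 h, then exposed for 3 days (37 °C, 5% CO2) to 10-point 3-fold serial dilutions at 0.25% final DMSO. Viability was read by CellTiter-Glo ATP luminescence, and IC50 was fitted from % inhibition against top/bottom controls.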

[3] = Metabolic stability in liver microsomes (human); format: in vitro ADME; conditions: Human being liver microsomes 0.5 mg/mL, compound 1 μM, NADPH 1 mM, 37° C.; for half-life at 1 μM: pH 7.4
Protocol: as §1, §2, §3, §4, §5, §6, §7, §8

[4] = system: WI-38 cells; test: Inhibition of human WI-38 embryonic lung cell proliferation (Cell-Titer Glo); format: cell-based; conditions: Homo sapiens, 72 h, 3 days incubation, read-out: Anti-Proliferative Activity Against WI-38 cells IC50
In short: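 WI-38 cells in EMEM with 10% FBS, seeded 24 h, then exposed to 10-point 3-fold compound dilutions (0.25% DMSO final) for 3 days at 37 °C, 5% CO2. Viability from intracellular ATP by Cell-Titer Glo luminescence; % inhibition normalised to top/bottom signals and IC50 fitted.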

| SMILES | half-life at 1 μM [1] [h] | pIC50 ([2]; Homo sapiens, 72 h) | half-life at 1 μM [3] [h] | pIC50 [4] | t1/2 [1] [h] | pIC50 [2] | t1/2 [3] [h] |
| --- | --- | --- | --- | --- | --- | --- | --- |
| CC(C)OC(=O)N[C@H]1CC[C@H](c2ncc(-c3ccc(Nc4cc5ccccn5n4)cc3S(=O)(=O)C3CC3)s2)CC1 [Example 57, isopropyl trans-(4-(5-(2-(cyclopropylsulfonyl)-4-(pyrazolo[1,5-a]pyridin-2-ylamino)phenyl)thiazol-2-yl)cyclohexyl)carbamate] | 2.1 | 8.15 | 0.933 | < 4.60 | – | – | – |
| CC(C)OC(=O)Nc1ccc(-c2cnc(C3CCC(NC(=O)OC(C)C)CC3)s2)c(S(=N)(=O)C(C)C)c1 (stereo not drawn) [Example 3, isopropyl trans-N-[4-[2-[4-(isopropoxycarbonylamino)cyclohexyl]thiazol-5-yl]-3-(isopropylsulfonimidoyl)phenyl]carbamate] | > 8.33 | 5.97 | 7.95 | < 4.60 | – | – | – |
| Cc1cc(Nc2ccc(-c3cnc(C4CCC(NC(=O)OC(C)C)CC4)s3)c(S(=N)(=O)C3CC3)c2)n[nH]1 (stereo not drawn) [Example 50, isopropyl trans-N-[4-[5-[2-(cyclopropylsulfonimidoyl)-4-]((5-methyl-1H-pyrazol-3-yl)amino]phenyl]thiazol-2-yl]cyclohexyl]carbamate] | 6.27 | 7.59 | 7.92 | < 4.60 | – | – | – |
| Cc1cc(Nc2ccc(-c3cnc([C@H]4CC[C@H](NC(=O)OC(C)C)CC4)s3)c(P3(=O)CCC3)c2)n[nH]1 [Example 103, isopropyl trans-(4-(5-(4-((5-methyl-1H-pyrazol-3-yl)amino)-2-(1-oxophosphetan-1-yl)phenyl)thiazol-2-yl)cyclohexyl)carbamate] | > 8.33 | 7.33 | > 8.33 | < 4.60 | – | – | – |
| Cc1cc(Nc2ccc(-c3cnc([C@H]4CC[C@H](NC(=O)OC(C)C)CC4)s3)c(S(=N)(=O)C3CC3)c2)n(C)n1 (stereo partly drawn) [Example 98, isopropyl trans-(4-(5-(2-(cyclopropanesulfonimidoyl)-4-((1,3-dimethyl-1H-pyrazol-5-yl)amino)phenyl)thiazol-2-yl)cyclohexyl)carbamate] | > 8.33 | 7.49 | 2.28 | < 4.60 | – | – | – |
| CC(C)OC(=O)N[C@H]1CC[C@H](c2ncc(-c3ccc(Nc4cn(C)nn4)cc3S(=N)(=O)C3CC3)s2)CC1 (stereo partly drawn) [Example 54] | > 8.33 | 7.26 | > 8.33 | < 4.60 | – | – | – |
| CC(C)OC(=O)N[C@H]1CC[C@H](c2ncc(-c3ccc(Nc4n[nH]c5ccccc45)cc3S(=O)(=O)C3CC3)s2)CC1 [Example 56, isopropyl trans-(4-(5-(4-((1H-indazol-3-yl)amino)-2-(cyclopropylsulfonyl)phenyl)thiazol-2-yl)cyclohexyl)carbamate] | 1.82 | 8.15 | 2.98 | < 4.60 | – | – | – |
| CC(C)OC(=O)Nc1ccc(-c2cnc([C@H]3CC[C@H](NC(=O)OC(C)C)CC3)s2)c(P(C)(C)=O)c1 [Example 1, isopropyl trans-N-[3-dimethylphosphoryl-4-[2-[4-(isopropoxycarbonylamino)cyclohexyl]thiazol-5-yl]phenyl]carbamate] | > 8.33 | 5.79 | > 8.33 | < 4.60 | – | – | – |
| CC(C)OC(=O)Nc1ccc(-c2cnc([C@H]3CC[C@H](NC(=O)OC(C)C)CC3)s2)c(S(=O)(=O)C(C)C)c1 [Example 2, isopropyl trans-N-[4-[2-[4-(isopropoxycarbonylamino)cyclohexyl]thiazol-5-yl]-3-isopropylsulfonyl-phenyl]carbamate] | 4.27 | 6.41 | 2.42 | < 4.60 | – | – | – |
| CC(C)OC(=O)Nc1ccc(-c2cnc([C@H]3CC[C@H](NC(=O)OC(C)C)CC3)s2)c(S(=N)(=O)C2CC2)c1 (stereo partly drawn) [Example 68, isopropyl trans-N-[3-(cyclopropylsulfonimidoyl)-4-[2-[4-(isopropoxycarbonylamino)cyclohexyl]thiazol-5-yl]phenyl]carbamate] | 2.82 | 7.00 | 3.12 | < 4.60 | – | – | – |
| CC(C)OC(=O)N[C@H]1CC[C@H](c2ncc(-c3ccc(NC(=O)NCc4ccccc4)cc3S(=N)(=O)C3CC3)s2)CC1 (stereo partly drawn) [Example 65, isopropyl trans-(4-(5-(4-(3-benzylureido)-2-(cyclopropanesulfonimidoyl)phenyl)thiazol-2-yl)cyclohexyl)carbamate] | 1.33 | 7.43 | 1.85 | < 4.60 | – | – | – |
| CC(C)OC(=O)Nc1ccc(-c2cnc([C@H]3CC[C@H](NC(=O)OC(C)C)CC3)s2)c(S(=O)(=O)C2CC2)c1 [Example 33, isopropyl trans-N-[3-cyclopropylsulfonyl-4-[2-[4-(isopropoxycarbonylamino)cyclohexyl]thiazol-5-yl]phenyl]carbamate] | 4.13 | 7.00 | > 8.33 | < 4.60 | – | – | – |
| Cc1cc(Nc2ccc(-c3cnc([C@H]4CC[C@H](NC(=O)OC(C)C)CC4)s3)c(S(=O)(=O)C3CC3)c2)nn1C [Example 49, isopropyl trans-(4-(5-(2-(cyclopropylsulfonyl)-4-((1,5-dimethyl-1H-pyrazol-3-yl)amino)phenyl)thiazol-2-yl)cyclohexyl)carbamate] | 2.08 | 8.22 | 0.933 | < 4.60 | – | – | – |
| Cc1cc(Nc2ccc(-c3cnc([C@H]4CC[C@H](NC(=O)OC(C)C)CC4)s3)c(S(=O)(=O)C3COC3)c2)n[nH]1 [Example 92, isopropyl trans-N-[4-[5-[4-[(5-methyl-1H-pyrazol-3-yl)amino]-2-(oxetan-3-ylsulfonyl)phenyl]thiazol-2-yl]cyclohexyl]carbamate] | 5.77 | 8.40 | 6.37 | 4.71 | – | – | – |
| Cc1cc(Nc2ccc(-c3cnc([C@H]4CC[C@H](NC(=O)OC(C)C)CC4)s3)c(P3(=O)CCCC3)c2)n[nH]1 [Example 47, isopropyl trans-N-[4-[5-[4-[(5-methyl-1H-pyrazol-3-yl)amino]-2-(1-oxidophospholan-1-yl)phenyl]thiazol-2-yl]cyclohexyl]carbamate] | 7.28 | 7.52 | 5.05 | < 4.60 | – | – | – |
| COc1ccc(-c2ccc(-c3cnc([C@H]4CC[C@H](NC(=O)OC(C)C)CC4)s3)c([S@@](=N)(=O)C3CC3)c2)cn1 (stereo in doubt) [Example 94] | – | – | – | – | 3.4 | 7.70 | 3.85 |
| CC(C)OC(=O)NC1CCC(c2ncc(-c3ccc(Nc4ccc(F)cn4)cc3S(=N)(=O)C3CC3)s2)CC1 (stereo not drawn) [Example 81, isopropyl trans-N-[4-[5-[2-(cyclopropylsulfonimidoyl)]-4-[(5-fluoro-2-pyridyl)amino]phenyl]thiazol-2-yl]cyclohexyl]carbamate] | 3.5 | 7.40 | 5.32 | 4.85 | – | – | – |
| CC(C)OC(=O)Nc1ccc(-c2cnc(C3CCC(NC(=O)OC(C)C)CC3)s2)c([S+]([O-])C(C)C)c1 (stereo not drawn) [Example 32, isopropyl trans-N-[4-[2-[4-(isopropoxycarbonylamino)cyclohexyl]thiazol-5-yl]-3-isopropylsulfinyl-phenyl]carbamate] | 2.7 | 6.38 | 4.18 | 4.64 | – | – | – |
| Cc1cc(Nc2ccc(-c3cnc([C@H]4CC[C@H](NC(=O)OC(C)C)CC4)s3)c(S(=O)(=O)C3CC3)c2)n[nH]1 [Example 48, isopropyl trans-(4-(5-(2-(cyclopropylsulfonyl)-4-((5-methyl-1H-pyrazol-3-yl)amino)phenyl)thiazol-2-yl)cyclohexyl)carbamate] | 7.2 | 8.22 | > 8.33 | 4.81 | – | – | – |
